According to the supplement of paper PMC10307832:

Legend:
Test in all cases: relative viability (nuclei count vs DMSO), 5 days (fraction); higher = more cells survive
Vandetanib + OSI-027 = compound: COc1cc2/c(=N/c3ccc(Br)cc3F)nc[nH]c2cc1OCC1CCN(C)CC1 [Vandetanib] + COc1cccc2cc(-c3nc([C@H]4CC[C@H](C(=O)O)CC4)n4ncnc(N)c34)[nH]c12 [OSI-027] (partner 0.5 µM)
Summary of the method: (§1)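 Relative viability is defined as nuclei in treated wells over nuclei in vehicle wells. Duplicate plates were run and medians reported. Lung cancer cell lines in 1536-well plates were dosed by pin tool one day after seeding, with one drug or with a fixed anchor-drug dose plus five library-drug doses (not always all listed) in √10 steps, and nuclei were counted after 5 days.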

Vandetanib + Linsitinib = compound: COc1cc2/c(=N/c3ccc(Br)cc3F)nc[nH]c2cc1OCC1CCN(C)CC1 [Vandetanib] + C[C@]1(O)C[C@@H](c2nc(-c3ccc4ccc(-c5ccccc5)nc4c3)c3c(N)nccn32)C1 [Linsitinib] (partner 1 µM)
Summary of the method: as §1

CUDC-101 + Bortezomib = compound: C#Cc1cccc(Nc2ncnc3cc(OC)c(OCCCCCCC(=O)NO)cc23)c1 [CUDC-101] + CC(C)C[C@H](NC(=O)[C@H](Cc1ccccc1)NC(=O)c1cnccn1)B(O)O [Bortezomib] (partner 0.002 µM)
Summary of the method: as §1

[1] = compound: C1=CC=C2C(=C1)N=C(S2)C(C#N)C3=NC(=NC=C3)NCCC4=CN=CC=C4 + C[C@]1(O)C[C@@H](c2nc(-c3ccc4ccc(-c5ccccc5)nc4c3)c3c(N)nccn32)C1 [Linsitinib] (partner 1 µM)
Summary of the method: as §1

Cell Line	relative viability (Vandetanib + OSI-027; first compound 0.02 µM)	relative viability (Vandetanib + OSI-027; first compound 0.06325 µM)	relative viability (Vandetanib + OSI-027; first compound 0.2 µM)	relative viability (Vandetanib + OSI-027; first compound 0.6325 µM)	relative viability (Vandetanib + OSI-027; first compound 2 µM)	relative viability (Vandetanib + Linsitinib; first compound 0.02 µM)	relative viability (Vandetanib + Linsitinib; first compound 0.06325 µM)	relative viability (Vandetanib + Linsitinib; first compound 0.2 µM)	relative viability (Vandetanib + Linsitinib; first compound 0.6325 µM)	relative viability (Vandetanib + Linsitinib; first compound 2 µM)	relative viability (CUDC-101 + Bortezomib; first compound 0.01 µM)	relative viability (CUDC-101 + Bortezomib; first compound 0.03162 µM)	relative viability (CUDC-101 + Bortezomib; first compound 0.1 µM)	relative viability (CUDC-101 + Bortezomib; first compound 0.3162 µM)	relative viability (CUDC-101 + Bortezomib; first compound 1 µM)	relative viability ([1]; first compound 0.005 µM)	relative viability ([1]; first compound 0.01581 µM)	relative viability ([1]; first compound 0.05 µM)	relative viability ([1]; first compound 0.1581 µM)	relative viability ([1]; first compound 0.5 µM)
NCI-H727	0.533	0.551	0.536	0.545	0.446	0.216	0.336	0.347	0.283	0.271	0.823	0.967	0.775	0.993	0.397	0.328	0.321	0.228	0.396	0.298
BEN	0.247	0.302	0.292	0.285	0.282	0.851	0.82	0.869	0.868	0.793	0.882	0.759	0.779	0.75	0.543	0.6	0.953	0.885	0.973	0.74
NCI-H650	0.491	0.531		0.521	0.447	0.872	0.839	0.677	0.792	0.254	0.834	0.917	0.87	0.459	0.643	0.838	0.578	0.803	1.26	0.984
NCI-H441	0.551	0.619	0.713	0.643	0.566	0.597	0.538	0.498	0.592	0.472	0.662	0.433	0.541	0.593	0.335		0.499	0.533	0.617	0.447
NCI-H1915	0.599	0.575	0.616	0.648	0.569	1.06	1.09	1.08	1.1	1.13	1.01	1.01	0.982	0.936	0.836	1.08	1.09	1.09	1.18	1.13
HCC-366	0.807	0.876	0.978	0.824	0.948	0.644	0.488	0.584	0.636	0.526	1.04	0.988	1.07	1.07	0.996	0.56	0.709	0.693	0.834	0.558
NCI-H1792	0.761	0.715	0.784	0.751	0.63	0.559	0.605	0.559	0.547	0.454	0.98	0.965	0.918	0.952	0.965		0.711	0.537	0.495	0.39
LCLC-103H	0.428	0.44	0.438	0.423	0.448	1.09	1	1.23	0.929	1.03	1.17	1.03	1.01	1.14	0.68	1.03	1.08	1.14	1.09	1.06
SK-LU-1	0.332	0.199	0.37	0.348	0.301	1.05	0.759	0.896	1.12	1.12	1.55	1.03	1.48	0.829	0.976		1.08	1.01	1.47	1.07
ABC-1	0.43	0.464	0.488	0.479	0.254	1.03	0.805	1.02	0.849	0.598	0.243	0.247	0.269	0.24	0.18	0.979	0.887	1.01	0.962	0.601
NCI-H1666	0.858	0.765	0.836	0.788	0.751	0.836	0.817	0.793	0.641	0.619	0.967	0.824	0.805	0.867	0.721	0.81	0.846	0.722	0.91	0.766
COR-L23	0.731	0.671	0.736	0.684	0.789	0.757	0.688	0.131	0.919	0.955	1.1	0.967	0.957	0.895	0.647	0.483	1.14	1.01	1.06	0.682
NCI-H460	0.604	0.611	0.615	0.583	0.586	0.733	0.758	0.0194	0.757	0.58	1.13	1.04	1.09	1.11	1.18		1.15	1.02	1.17	0.502
